Patent publication US11291655B2, “RAD51 inhibitors” (Cyteir Therapeutics, Inc., priority 2017, dated 2022)

System: Daudi Cell Culture
Assay: Compound primary screening in Daudi cell culture
Assay type: cell-based
Settings: Homo sapiens, 168 h; Daudi cells, 1250 cells per well, reads on Day 7
Procedure: Compound Primary Screening
1. Materials and Supplies
Plastic ware and consumables needed for this experiment include: Cell Culture media; Evaporation Buffer media; 100% DMSO; 96 well U-bottom sterile culture plates; 250 mL bottle; 1.5 mL Opaque amber epi tubes; Epi Tube rack; 300 mL reservoirs; 25 mL reservoir; 25 mL serological pipette tips; 5 mL serological pipette tips P1000 Pipette Tips; and P200 Pipette Tips.
Equipment needed for this experiment include: Viaflo 384 liquid handler; Eppendorf serological pipette; Eppendorf P1000 Pipette; and Eppendorf P200 Pipette
Daudi Cell Culture is also needed for this experiment.
Lastly, compounds (e.g., the compounds of this invention) to be tested are needed.
All steps were performed in a sterile environment inside the Biosafety cabinet.
A 96 well u-bottom plate was prepared by writing the experiment number, plate number, date and initials in the top right corner of the plate lid. With a sterile 300 ml reservoir, and 25 ml serological pipette, evaporation buffer media was pipetted into reservoir in 25 ml increments. Using the liquid handler, 150 ul of evaporation buffer media was pipetted from reservoir into rows A and H, and Columns 1 and 12 of the 96 well u-bottom plate. Cell cultures were counted to obtain the density of cells per ml, and the culture viability. The cell density information was used to obtain 1,000,000 cells from culture using a 5 mL serological pipette into an epi tube. The cell density information from the culture was used to calculate the number of cells and volume of media needed for the assay to seed 1250 cells in 130 ul of media per available culture well in the 96 well u-bottom plate. Rows B through F were used for cells (50 wells in total), with row G left for an empty media control. The calculation was overestimated by 10 mL to account for the dead volume in the 300 ml reservoir. Once the media volume was calculated, the appropriate volume of media was pipetted in 25 mL increments into the 250 mL bottle using a 25 mL serological pipette. The 250 ml bottle was capped tightly, and placed into a 37° C. water bath for 2 minutes. While the culture media was warming, 10 mL of fresh media was pipetted from the 500 mL culture media bottle into a sterile 25 mL reservoir. Using the Eppendorf multichannel pipette, 130 ul of media was pipetted from the 25 mL reservoir into row G of the 96 well u-bottom plate. Once the 250 mL bottle of media was warmed, the volume of culture needed was pipetted into the bottle, and mixed gently with a 25 mL serological pipette as to not create bubbles, and then the contents of the bottle were pipetted into a new 300 mL reservoir. Using the liquid handler, 130 ul of culture was pipetted from the 300 mL reservoir into rows B through F of the 96 well u-bottom plate. Once the culture was added, the plate was placed into a 37° C. incubator until the compound master plate was prepared for use.
Two 96 well u-bottom plates were prepared by writing the master plate name in the upper right corner of the plate lid. Labeling one DMSO master and the other Media Master. The compounds of interest were obtained from the laboratory freezer, and placed into a 25 well storage box with a lid, and set the box aside. The compounds were vortexed after thawing but before use. Using an automatic multichannel pipette, 20 ul of 100% DMSO was pipetted into wells B3-B11 through G3-G11 of the DMSO master plate. For each compound on the master plate, 50 ul of the compound were pipetted in the appropriate well of row 2 (reference plate map to determine appropriate well). A serial dilution was prepared beginning by aspirating 20 ul from row 2 and mixing with row 3, repeating until row 11 was reached. Using the liquid handler, 194 ul of Daudi media was dispensed into wells B2-B11 through G2-G11 of the Media master plate. Using the liquid handler, 6 ul from the DMSO master plate was aspirated and dispensed into the media master plate, mixing 100 ul twice. […]

Structure (SMILES)	EC50 [µM]
CC(=O)Nc1ccc(-c2cnc(-c3ccc(NC(=S)NC(C)C)cc3)s2)c(S(=O)(=O)NCCOCCO)c1 [Compound D26]	> 10
COCCNS(=O)(=O)c1cc(NC(C)=O)ccc1-c1cnc(-c2ccc(NC(=S)NC(C)C)cc2)s1 [Compound D27]	> 10
CC(=O)Nc1ccc(-c2cnc(-c3ccc(NC(=S)NC(C)C)cc3)s2)c(S(=O)(=O)NCCO)c1 [Compound D28]	> 10
CNCCNS(=O)(=O)c1cc(NC(C)=O)ccc1-c1cnc(-c2ccc(NC(=S)NC(C)C)cc2)s1 [Compound D29]	> 10
CC(=O)Nc1ccc(-c2cnc(-c3ccc(NC(=S)NC(C)C)cc3)s2)c(S(=O)(=O)NC(C)(C)C)c1 [Compound D30]	< 5
CC(C)OC(=O)Nc1ccc(-c2ncc(-c3ccc(NS(=O)(=O)c4ccccc4)cc3S(=O)(=O)NC(C)(C)C)s2)cc1 [Compound E1]	> 10
CC(C)OC(=O)Nc1ccc(-c2ncc(-c3ccc(NS(=O)(=O)Cc4ccccc4)cc3S(=O)(=O)NC(C)(C)C)s2)cc1 [Compound E2]	> 10
CC(=O)Nc1ccc(-c2cnc(-c3ccc(NC(C)=O)cc3S(=O)(=O)NC(C)(C)C)s2)c(S(=O)(=O)NC(C)(C)C)c1 [Compound E3]	< 10
CC(=O)Nc1ccc(-c2ncc(-c3ccc(N)cc3S(=O)(=O)NC(C)(C)C)s2)cc1 [Compound E4]	> 10
CC(=O)Nc1ccc(-c2ncc(-c3ccc(NC(=S)NC(C)C)cc3S(=O)(=O)NC(C)(C)C)s2)cc1 [Compound E5]	< 10
CC(=O)Nc1ccc(-c2cnc(-c3ccc(N)cc3S(=O)(=O)NC(C)(C)C)s2)c(S(=O)(=O)NC(C)(C)C)c1 [Compound E8]	> 10
CC(=O)Nc1ccc(-c2cnc(-c3ccc(NC(=S)NC(C)C)cc3S(=O)(=O)NC(C)(C)C)s2)c(S(=O)(=O)NC(C)(C)C)c1 [Compound E9]	< 1
CC(=O)Nc1ccc(-c2cnc(-c3ccc(NC(=O)OC(C)C)cc3)s2)c(S(=O)(=O)NC(C)(C)C)c1 [Compound E11]	< 5
CC(C)(C)NS(=O)(=O)c1cc(Nc2nccs2)ccc1-c1cnc(-c2ccc(N)cc2)s1 [Compound E12]	> 10
CC(=O)N(C)c1ccc(-c2cnc(-c3ccc(N)cc3)s2)c(S(=O)(=O)NC(C)(C)C)c1 [Compound E14]	> 10
CC(=O)N(C)c1ccc(-c2cnc(-c3ccc(NC(=S)NC(C)C)cc3)s2)c(S(=O)(=O)NC(C)(C)C)c1 [Compound E15]	> 10
Cn1ccnc1Nc1ccc(-c2cnc(-c3ccc(N)cc3)s2)c(S(=O)(=O)NC(C)(C)C)c1 [Compound E16]	> 10
CC(C)NC(=S)Nc1ccc(-c2ncc(-c3ccc(Nc4nccn4C)cc3S(=O)(=O)NC(C)(C)C)s2)cc1 [Compound E17]	> 10
Cn1ccnc1Nc1ccc(-c2cnc(-c3ccc(N)cc3)s2)c(S(N)(=O)=O)c1 [Compound E18]	> 10
CC(C)NC(=S)Nc1ccc(-c2ncc(-c3ccc(Nc4nccn4C)cc3S(N)(=O)=O)s2)cc1 [Compound E19]	> 10
CC(=O)N(C)c1ccc(-c2cnc(-c3ccc(NC(=O)OC(C)C)cc3)s2)c(S(=O)(=O)NC(C)(C)C)c1 [Compound E20]	< 10
CC(=O)Nc1ccc(-c2ncc(-c3ccc(NC(=S)NC(C)C)cc3S(=O)(=O)NC(C)(C)C)s2)c(S(=O)(=O)NC(C)(C)C)c1 [Compound E21]	< 5
CC(=O)Nc1ccc(-c2cnc(-c3ccc(NC(=O)OCC(C)C)cc3)s2)c(S(=O)(=O)NC(C)(C)C)c1 [Compound G1]	< 5
COC(=O)Nc1ccc(-c2ncc(-c3ccc(NC(C)=O)cc3S(=O)(=O)NC(C)(C)C)s2)cc1 [Compound G2]	< 10
CCOC(=O)Nc1ccc(-c2ncc(-c3ccc(NC(C)=O)cc3S(=O)(=O)NC(C)(C)C)s2)cc1 [Compound G3]	< 1

Further lines, results first:

EC50 [µM]	Structure (SMILES)
> 10	CC(=O)Nc1ccc(-c2cnc(-c3ccc(NC(=O)CC(C)C)cc3)s2)c(S(=O)(=O)NC(C)(C)C)c1 [Compound G4]
> 10	CC(=O)Nc1ccc(-c2cnc(-c3ccc(NS(C)(=O)=O)cc3)s2)c(S(=O)(=O)NC(C)(C)C)c1 [Compound G5]
< 10	CC(=O)Nc1ccc(-c2cnc(-c3ccc(NS(=O)(=O)c4ccccc4)cc3)s2)c(S(=O)(=O)NC(C)(C)C)c1 [Compound G6]
> 10	CCS(=O)(=O)Nc1ccc(-c2ncc(-c3ccc(NC(C)=O)cc3S(=O)(=O)NC(C)(C)C)s2)cc1 [Compound G7]
> 10	COCCS(=O)(=O)Nc1ccc(-c2ncc(-c3ccc(NC(C)=O)cc3S(=O)(=O)NC(C)(C)C)s2)cc1 [Compound G8]
> 10	CNS(=O)(=O)Nc1ccc(-c2ncc(-c3ccc(NC(C)=O)cc3S(=O)(=O)NC(C)(C)C)s2)cc1 [Compound G9]
< 10	CC(=O)Nc1ccc(-c2cnc(-c3ccc(NC(=O)NC(C)C)cc3)s2)c(S(=O)(=O)NC(C)(C)C)c1 [Compound G10]
< 5	CC(=O)Nc1ccc(-c2cnc(-c3ccc(NC(=O)OC(C)(C)C)cc3)s2)c(S(=O)(=O)NC(C)(C)C)c1 [Compound G11, tert-butyl N-[4-[5-[4-acetamido-2-(tert-butylsulfamoyl)phenyl]thiazol-2-yl]phenyl]carbamate]
< 5	CC(C)OC(=O)Nc1ccc(-c2ncc(-c3ccc(NC(=O)[C@@H]4CCCN4)cc3S(=O)(=O)NC(C)(C)C)s2)cc1 [Compound H1]
< 5	CC(C)OC(=O)Nc1ccc(-c2ncc(-c3ccc(NC(=O)[C@H]4CCCN4)cc3S(=O)(=O)NC(C)(C)C)s2)cc1 [Compound H2]
< 5	CC(C)OC(=O)Nc1ccc(-c2ncc(-c3ccc(NC(=O)C4CC4)cc3S(=O)(=O)NC(C)(C)C)s2)cc1 [Compound H3]
< 1	CCC(=O)Nc1ccc(-c2cnc(-c3ccc(NC(=O)OC(C)C)cc3)s2)c(S(=O)(=O)NC(C)(C)C)c1 [Compound H4]
< 1	CC(C)OC(=O)Nc1ccc(-c2ncc(-c3ccc(NC(=O)OCc4ccccc4)cc3S(=O)(=O)NC(C)(C)C)s2)cc1 [Compound H5]
< 1	CCOC(=O)Nc1ccc(-c2cnc(-c3ccc(NC(=O)OC(C)C)cc3)s2)c(S(=O)(=O)NC(C)(C)C)c1 [Compound H6]
< 1	COC(=O)Nc1ccc(-c2cnc(-c3ccc(NC(=O)OC(C)C)cc3)s2)c(S(=O)(=O)NC(C)(C)C)c1 [Compound H7]
< 1	CC(C)OC(=O)Nc1ccc(-c2ncc(-c3ccc(NC(=O)OC(C)C)cc3S(=O)(=O)NC(C)(C)C)s2)cc1 [Compound H8]
< 1	CC(C)OC(=O)Nc1ccc(-c2ncc(-c3ccc(NC(=O)c4ccccc4)cc3S(=O)(=O)NC(C)(C)C)s2)cc1 [Compound H9]
< 1	CC(C)OC(=O)Nc1ccc(-c2ncc(-c3ccc(NC(=O)C(C)C)cc3S(=O)(=O)NC(C)(C)C)s2)cc1 [Compound H10]
> 10	CC(C)OC(=O)Nc1ccc(-c2ncc(-c3ccc(NS(C)(=O)=O)cc3S(=O)(=O)NC(C)(C)C)s2)cc1 [Compound H11]
< 5	CCNc1ccc(-c2cnc(-c3ccc(NC(=O)OC(C)C)cc3)s2)c(S(=O)(=O)NC(C)(C)C)c1 [Compound I1, isopropyl N-[4-[5-[2-(tert-butylsulfamoyl)-4-(ethylamino)phenyl]thiazol-2-yl]phenyl]carbamate]
< 5	CC(C)OC(=O)Nc1ccc(-c2ncc(-c3ccc(O)cc3S(=O)(=O)NC(C)(C)C)s2)cc1 [Compound I2, isopropyl N-[4-[5-[2-(tert-butylsulfamoyl)-4-hydroxy-phenyl]thiazol-2-yl]phenyl]carbamate]
